Source: patent publication US7419969B2 (Bristol-Myers Squibb Company, priority 2004, dated 2008)

These compounds were tested against T1, HIV-integrase (Human immunodeficiency virus type 1 group M subtype B, UniProt P04585) (assay: in-vitro activity against HIV-integrase (HIV Integrase Inhibition, SPA bead assay)). Settings: Table 1a; recombinant integrase, activity class.
T1 construct: Recombinant integrase (0.26 ng) was incubated with the beads
Format: biochemical
In short: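 Recombinant integrase (0.26 ng) pre-bound for 90 min at 37 °C to biotinylated substrate DNA on streptavidin SPA beads, then washed. Inhibitors added with 33P-labelled target DNA; reaction stopped with 10 mM EDTA. Scintillation CPM taken as integration signal.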

SMILES	IC50
CN1CCn2c(nc(C(=O)NCc3ccc(F)cc3)c(O)c2=O)C12CCCC2 [Example 92, Spiro[cyclopentane-1,9′(6′H)-[4H]pyrazino[1,2-a]pyrimidine]-2′-carboxamide, N-[(4-fluorophenyl)methyl]-7′,8′-dihydro-3′-hydroxy-8′-methyl-4′-oxo-]	1 to 10 nM
CN1CCn2c(nc(C(=O)NCc3ccc(F)cc3-n3cncn3)c(O)c2=O)C12CCCC2 [Example 93, Spiro[cyclopentane-1,9′(6′H)-[4H]pyrazino[1,2-a]pyrimidine]-2′-carboxamide, N-[[4-fluoro-2-(1H-1,2,4-triazol-1-yl)phenyl]methyl]-7′,8′-dihydro-3′-hydroxy-8′-methyl-4′-oxo-]	1 to 10 nM
Cc1ncnn1-c1cc(F)ccc1CNC(=O)c1nc2n(c(=O)c1O)CCN(C)C21CCCC1 [Example 94, Spiro[cyclopentane-1,9′(6′H)-[4H]pyrazino[1,2-a]pyrimidine]-2′-carboxamide, N-[[4-fluoro-2-(5-methyl-1H-1,2,4-triazol-1-yl)phenyl]methyl]-7′,8′-dihydro-3′-hydroxy-8′-methyl-4′-oxo-]	10 to 100 nM
CN1CCn2c(nc(C(=O)NCc3ccc(F)cc3)c(O)c2=O)C12CCCCC2 [Example 95, Spiro[cyclohexane-1,9′(6′H)-[4H]pyrazino[1,2-a]pyrimidine]-2′-carboxamide, N-[(4-fluorophenyl)methyl]-7′,8′-dihydro-3′-hydroxy-8′-methyl-4′-oxo-]	1 to 10 nM
CN1CCn2c(nc(C(=O)NCc3ccc(F)cc3-n3cncn3)c(O)c2=O)C12CCCCC2 [Example 96, Spiro[cyclohexane-1,9′(6′H)-[4H]pyrazino[1,2-a]pyrimidine]-2′-carboxamide, N-[[4-fluoro-2-(1H-1,2,4-triazol-1-yl)phenyl]methyl]-7′,8′-dihydro-3′-hydroxy-8′-methyl-4′-oxo-]	1 to 10 nM
Cc1ncnn1-c1cc(F)ccc1CNC(=O)c1nc2n(c(=O)c1O)CCN(C)C21CCCCC1 [Example 97, Spiro[cyclohexane-1,9′(6′H)-[4H]pyrazino[1,2-a]pyrimidine]-2′-carboxamide, N-[[4-fluoro-2-(5-methyl-1H-1,2,4-triazol-1-yl)phenyl]methyl]-7′,8′-dihydro-3′-hydroxy-8′-methyl-4′-oxo-]	10 to 100 nM
CN1CCn2c(nc(C(=O)NCc3ccc(F)cc3)c(O)c2=O)C12CCC2 [Example 98, Spiro[cyclobutane-1,9′(6′H)-[4H]pyrazino[1,2-a]pyrimidine]-2′-carboxamide, N-[(4-fluorophenyl)methyl]-7′,8′-dihydro-3′-hydroxy-8′-methyl-4′-oxo-]	1 to 10 nM
CN1CCn2c(nc(C(=O)NCc3ccc(F)cc3-n3cncn3)c(O)c2=O)C12CCC2 [Example 99, Spiro[cyclobutane-1,9′(6′H)-[4H]pyrazino[1,2-a]pyrimidine]-2′-carboxamide, N-[[4-fluoro-2-(1H-1,2,4-triazol-1-yl)phenyl]methyl]-7′,8′-dihydro-3′-hydroxy-8′-methyl-4′-oxo-]	1 to 10 nM
Cc1ncnn1-c1cc(F)ccc1CNC(=O)c1nc2n(c(=O)c1O)CCN(C)C21CCC1 [Example 100, Spiro[cyclobutane-1,9′(6′H)-[4H]pyrazino[1,2-a]pyrimidine]-2′-carboxamide, N-[[4-fluoro-2-(5-methyl-1H-1,2,4-triazol-1-yl)phenyl]methyl]-7′,8′-dihydro-3′-hydroxy-8′-methyl-4′-oxo-]	10 to 100 nM
O=C(NCc1ccc(F)cc1-n1ccnn1)c1nc2n(c(=O)c1O)CCOC21CCC1 [Example 101, Spiro[cyclobutane-1,9′(4′H)-pyrimido[2,1-c][1,4]oxazine]-2′-carboxamide, N-[[4-fluoro-2-(1H-1,2,3-triazol-1-yl)phenyl]methyl]-6′,7′-dihydro-3′-hydroxy-4′-oxo-]	1 to 10 nM
Cc1nnn(-c2cc(F)ccc2CNC(=O)c2nc3n(c(=O)c2O)CCOC32CCC2)c1C [Example 102, Spiro[cyclobutane-1,9′(4′H)-pyrimido[2,1-c][1,4]oxazine]-2′-carboxamide, N-[[2-(4,5-dimethyl-1H-1,2,3-triazol-1-yl)-4-fluorophenyl]methyl]-6′,7′-dihydro-3′-hydroxy-4′-oxo-]	10 to 100 nM
CC(C)(C)c1cn(-c2cc(F)ccc2CNC(=O)c2nc3n(c(=O)c2O)CCOC32CCC2)nn1 [Example 103, Spiro[cyclobutane-1,9′(4′H)-pyrimido[2,1-c][1,4]oxazine]-2′-carboxamide, N-[[2-[4-(1,1-dimethylethyl)-1H-1,2,3-triazol-1-yl]-4-fluorophenyl]methyl]-6′,7′-dihydro-3′-hydroxy-4′-oxo-]	10 to 100 nM
Cc1cnnn1-c1cc(F)ccc1CNC(=O)c1nc2n(c(=O)c1O)CCOC21CCC1 [Example 104, Spiro[cyclobutane-1,9′(4′H)-pyrimido[2,1-c][1,4]oxazine]-2′-carboxamide, N-[[4-fluoro-2-(5-methyl-1H-1,2,3-triazol-1-yl)phenyl]methyl]-6′,7′-dihydro-3′-hydroxy-4′-oxo-]	1 to 10 nM
O=C(NCc1ccc(F)cc1N1CCOC1=O)c1nc2n(c(=O)c1O)CCOC21CCC1 [Example 105, Spiro[cyclobutane-1,9′(4′H)-pyrimido[2,1-c][1,4]oxazine]-2′-carboxamide, N-[[4-fluoro-2-(2-oxo-3-oxazolidinyl)phenyl]methyl]-6′,7′-dihydro-3′-hydroxy-4′-oxo-]	1 to 10 nM
O=C(NCc1ccc(F)cc1N1CCC1=O)c1nc2n(c(=O)c1O)CCOC21CCC1 [Example 106, Spiro[cyclobutane-1,9′(4′H)-pyrimido[2,1-c][1,4]oxazine]-2′-carboxamide, N-[[4-fluoro-2-(2-oxo-1-azetidinyl)phenyl]methyl]-6′,7′-dihydro-3′-hydroxy-4′-oxo-]	1 to 10 nM
Cc1nnn(-c2cc(F)ccc2CNC(=O)c2nc3n(c(=O)c2O)CCCOC32CCC2)c1C [Example 107, Spiro[cyclobutane-1,10′(4′H)-[6H]pyrimido[2,1-c][1,4]oxazepine]-2′-carboxamide, N-[[2-(4,5-dimethyl-1H-1,2,3-triazol-1-yl)-4-fluorophenyl]methyl]-7′,8′-dihydro-3′-hydroxy-4′-oxo-]	10 to 100 nM
Cc1ncn(-c2cc(F)ccc2CNC(=O)c2nc3n(c(=O)c2O)CCOC32COC2)n1 [Example 108, Spiro[oxetane-3,9′(4′H)-pyrimido[2,1-c][1,4]oxazine]-2′-carboxamide, N-[[4-fluoro-2-(3-methyl-1H-1,2,4-triazol-1-yl)phenyl]methyl]-6′,7′-dihydro-3′-hydroxy-4′-oxo-]	1 to 10 nM
O=C(NCc1ccc(F)cc1)c1nc2n(c(=O)c1O)CCOC21COC1 [Example 109, Spiro[oxetane-3,9′(4′H)-pyrimido[2,1-c][1,4]oxazine]-2′-carboxamide, N-[(4-fluorophenyl)methyl]-6′,7′-dihydro-3′-hydroxy-4′-oxo-]	1 to 10 nM
O=C(NCc1ccc(F)cc1-n1cncn1)c1nc2n(c(=O)c1O)CCOC21COC1 [Example 110, Spiro[oxetane-3,9′(4′H)-pyrimido[2,1-c][1,4]oxazine]-2′-carboxamide, N-[[4-fluoro-2-(1H-1,2,4-triazol-1-yl)phenyl]methyl]-6′,7′-dihydro-3′-hydroxy-4′-oxo-]	1 to 10 nM
CS(=O)(=O)c1cc(F)ccc1CNC(=O)c1nc2n(c(=O)c1O)CCOC21COC1 [Example 111, Spiro[oxetane-3,9′(4′H)-pyrimido[2,1-c][1,4]oxazine]-2′-carboxamide, N-[[4-fluoro-2-(methylsulfonyl)phenyl]methyl]-6′,7′-dihydro-3′-hydroxy-4′-oxo-]	10 to 100 nM
O=C(NCc1ccc(F)cc1-n1ccnn1)c1nc2n(c(=O)c1O)CCOC21CCOCC1 [Example 112, Spiro[4H-pyran-4,9′(4′H)-pyrimido[2,1-c][1,4]oxazine]-2′-carboxamide, N-[[4-fluoro-2-(1H-1,2,3-triazol-1-yl)phenyl]methyl]-2,3,5,6,6′,7′-hexahydro-3′-hydroxy-4′-oxo-]	1 to 10 nM
O=C(NCc1ccc(F)cc1-n1ccnn1)c1nc2n(c(=O)c1O)CCOC21CCCC1 [Example 113, Spiro[cyclopentane-1,9′(4′H)-pyrimido[2,1-c][1,4]oxazine]-2′-carboxamide, N-[[4-fluoro-2-(1H-1,2,3-triazol-1-yl)phenyl]methyl]-6′,7′-dihydro-3′-hydroxy-4′-oxo-]	1 to 10 nM
O=C(NCc1ccc(F)cc1)c1nc2n(c(=O)c1O)CCCOC21CCOCC1 [Example 114, Spiro[4H-pyran-4,10′(4′H)-[6H]pyrimido[2,1-c][1,4]oxazepine]-2′-carboxamide, N-[(4-fluorophenyl)methyl]-2,3,5,6,7′,8′-hexahydro-3′-hydroxy-4′-oxo-]	1 to 10 nM
Cc1ncn(-c2cc(F)ccc2CNC(=O)c2nc3n(c(=O)c2O)CCCOC32CCC2)n1 [Example 123, Spiro[cyclobutane-1,10′(4′H)-[6H]pyrimido[2,1-c][1,4]oxazepine]-2′-carboxamide, N-[[4-fluoro-2-(3-methyl-1H-1,2,4-triazol-1-yl)phenyl]methyl]-7′,8′-dihydro-3′-hydroxy-4′-oxo-]	1 to 10 nM
Cc1ncn(-c2cc(F)ccc2CNC(=O)c2nc3n(c(=O)c2O)CCOC32CCC2)n1 [Example 124, Spiro[cyclobutane-1,9′(4′H)-pyrimido[2,1-c][1,4]oxazine]-2′-carboxamide, N-[[4-fluoro-2-(3-methyl-1H-1,2,4-triazol-1-yl)phenyl]methyl]-6′,7′-dihydro-3′-hydroxy-4′-oxo-]	1 to 10 nM
O=C(NCc1ccccc1N1CCC1=O)c1nc2n(c(=O)c1O)CCOC21CCC1 [Example 125, Spiro[cyclobutane-1,9′(4′H)-pyrimido[2,1-c][1,4]oxazine]-2′-carboxamide, 6′,7′-dihydro-3′-hydroxy-4′-oxo-N-[[2-(2-oxo-1-azetidinyl)phenyl]methyl]-]	1 to 10 nM
O=C(NCc1ccccc1N1CCOC1=O)c1nc2n(c(=O)c1O)CCOC21CCC1 [Example 126, Spiro[cyclobutane-1,9′(4′H)-pyrimido[2,1-c][1,4]oxazine]-2′-carboxamide, 6′,7′-dihydro-3′-hydroxy-4′-oxo-N-[[2-(2-oxo-3-oxazolidinyl)phenyl]methyl]-]	1 to 10 nM
